From patent publication US20230167068A1, “BENZOPYRAZOLE COMPOUND” (MEDSHINE DISCOVERY INC., priority 2019, published 2023)

Experiments:
[1] = test system: MMTV promoter luciferase reporter in HeLa cell line (GR transcription activation); experiment: MMTV transcription activation activity, luciferase reporter gene screening system (MMTV_GR transcription activation experiment); assay type: cell-based; settings: Homo sapiens; for Emax: HeLa, maximum effect value, positive control 1000 nM dexamethasone, read-out: TA (MMTV transcription activation activity) Effect; for EC50: absolute EC50, HeLa MMTV-luciferase cells, 18 h, max concentration 1000 nM, read-out: TA (MMTV transcription activation activity) EC50
Description: The promoter of mouse mammary tumor virus (MMTV) contains specific binding sites for activating GRs (GREs). To determine the activity of the compounds, a reporter gene (luciferase) was inserted after the MMTV promoter, and this construct was expressed in a stable manner in the genome of the HeLa cell line. MMTV promoter was activated by the test compounds to induce the expression of luciferase, and its activity was detected by luminescence measurement.
• [0442] 1) All the culture media were carefully aspirated, the cell layer was rinsed gently with an appropriate amount of DPBS, and then aspirated. • [0443] 2) An appropriate amount of 0.05% Typsine EDTA was added and incubated in a CO2 incubator for 3-5 minutes to digest the cells. • [0444] 3) The cells were resuspended with an appropriate amount of cell culture medium. • [0445] 4) The amount of cells required was calculated, and the cell concentration was 4×10^3 cells/well. • [0446] 5) The cell suspension was diluted with appropriate cell culture medium. • [0447] 6) Cell suspension was dispensed into a disposable sterile loading slot. • [0448] 7) Inoculated 30 µL per well into a 384-well plate. • [0449] 8) The cell plate was placed in a 37° C. 5% CO2 incubator for 18-24 hours.
Compounds were diluted with DMSO to 1 mM, 0.25 mM, 0.0625 mM, 0.015625 mM, 0.0039 mM, 0.0009765 mM, 0.000244 mM, 0.000061 mM, 0.00001526 mM and 0.0000038125 mM, then diluted 25-fold with serum culture medium treated with activated carbon, and finally 4x concentration compound experimental plate was obtained, prepared before use.
The final DMSO experimental concentration was 0.1%.
MMTV_GR transcription activation activity experiment • [0458] 1) Inoculated cells: Fresh cells were inoculated into 384 white transparent bottom experimental plates at 4×10^3 cells/30 µL/well, and incubated at 37° C. 5% CO2 incubator for 24 hours. • [0459] 2) Compound preparation: The compound plate was prepared before the experiment, and the reference compound (dexamethasone) and the test compound of 4x concentration were prepared. Finally, the experimental plate of 4x concentration compound was obtained. • [0460] 3) Added compound: 10 µL of 4x compound was transferred with Bravo and added to cell plate. Incubated for 18 hours in a 37° C. 5% CO2 incubator. • [0461] 4) 30 µL of Bright-Glo fluorescent detection reagent was transferred to the cell plate. • [0462] 5) Centrifugal incubation for 2 minutes. • [0463] 6) The fluorescence value was measured with the Envision plate reader.
Positive control: 1000 nM dexamethasone (0.1% DMSO)
Negative control: 0.1% DMSO
(§1) Test compound: Maximum concentration of 1000 nM, 4-fold dilution, 10 wells in total, repeated.
(§2) Dexamethasone: Maximum concentration of 1000 nM, 4-fold dilution, 10 wells in total, repeated.
The graphing software GraphPad Prism5 was used to create the concentration curves of the tested compounds and calculate the IC50 values.

[2] = test system: hMMP-1 promoter reporter gene in Hela cells (GR transcription repression); experiment: hMMP1 transcription repression activity, luciferase reporter gene screening system (hMMP1 GR transcription repression test); assay type: cell-based; settings: Homo sapiens; for Emax: HeLa, maximum effect value, positive control 1000 nM dexamethasone, read-out: TR (hMMP1 transcription inhibition activity) Effect; for IC50: absolute IC50, HeLa hMMP-1/luciferase cells, 10 nM PMA, 18 h, max concentration 1000 nM, read-out: TR (hMMP1 transcription inhibition activity) IC50
Description: Human MMP-1 promoter region (containing two AP-1 binding sites and two PEA3 sites, a total of 249bp, GenBank catalog #AF023338) was cloned into the upstream of luciferase reporter gene. The hMMP-1 promoter reporter gene was constructed and transfected into Hela cells so that luciferase production could be easily detected. A stable recombinant hMMP-⅟luciferase cell line was used for the development and validation of this experiment.
• [0377] 1) All the culture media were carefully aspirated, and the cell layer was rinsed gently with an appropriate amount of DPBS, and then aspirated. • [0378] 2) An appropriate amount of 0.05% Typsine EDTA was added and incubated in a CO2 incubator for 3-5 minutes to digest the cells. • [0379] 3) The cells were resuspended with an appropriate amount of cell culture medium. • [0380] 4) The required amount of cells were calculated. The cell concentration was 5x10^3 cells/well. • [0381] 5) The cell suspension was diluted with appropriate cell culture medium. • [0382] 6) The cell suspension was dispensed into a disposable sterile loading slot. • [0383] 7) Inoculated 30µL per well into a 384-well plate. • [0384] 8) The cell plate was placed in a 37° C. 5% CO2 incubator for 18-24 hours.
The final DMSO concentration was 0.1%. PMA needs to be protected from light during use.
hMMP1 GR transcription repression activity test • [0395] 1) Inoculated cells: Fresh cells were inoculated into 384 white experimental plates at 5x10^3 cells/30µL/well, and incubated in a 5% CO2 incubator at 37° C. for 24 hours. • [0396] 2) Compound preparation: The compound plate was prepared before the experiment, and the reference compound (dexamethasone) and the tested compound of 10x concentration were prepared. Finally, the experimental plate of 10× concentration compound was obtained. • [0397] 3) Added compound: 3.3 µL of 10x compound was transferred with Bravo and added to cell plate. Incubated for 18 hours in a 5% CO2 incubator at 37° C. • [0398] 4) 30 µL of Bright-Glo fluorescent detection reagent was transferred to the cell plate. • [0399] 5) Centrifugal incubation for 2 minutes. • [0400] 6) The fluorescence value was measured with the Envision plate reader.
Positive Control: 10 nM PMA + 1000 nM dexamethasone (0.1% DMSO)
Negative control: 10 nM PMA (0.1% DMSO)
as §1, §2
The graphing software GraphPad Prism5 was used to create the concentration curves of the test compounds and calculate the IC50 values.

[3] = In vivo pharmacokinetic properties study in male SD rats; settings: rat, plasma, iv 2 mg/kg; for half-life: read-out: T½ (converted); for Vd: read-out: Vdss
Procedure: Experimental purpose: The purpose of this study was to determine the pharmacokinetic parameters of compounds in male SD rats.
Experimental methods: In this project, two male SD rats were intravenously administered with a dose of 2 mg/kg and a concentration of 0.4 mg/mL. Plasma samples were collected at 0 h (before administration) and 0.0833, 0.25, 0.5, 1, 2, 4, 6, 8, 24 h after administration. Then the collected samples were analyzed by LC-MS/MS and the data were collected. The collected analytical data were used to calculate the relevant pharmacokinetic parameters using Phoenix WinNonlin 6.3 software.

With `C[C@H](NC(=O)C(C)(F)F)[C@H](Oc1ccc2c(cnn2-c2ccc3c(c2)CCCO3)c1)c1cc(F)cc(F)c1` [WX002] the Emax [1] was 76%, the EC50 [1] was 2.07 nM and the Emax [2] was 100%. The IC50 [2] was 0.318 nM.
For `C[C@H](NC(=O)C(C)(F)F)[C@H](Oc1ccc2c(cnn2-c2ccc3nccn3c2)c1)c1cc(F)cc(F)c1` [WX003], the Emax [1] was 91.4%, the EC50 [1] was 0.229 nM and the Emax [2] was 95.1%. The IC50 [2] was 0.08 nM.
With `CC(C)[C@H](NC(=O)C(C)(F)F)[C@H](Oc1ccc2c(cnn2-c2ccc3nccn3c2)c1)c1ccccc1` [WX004] the Emax [1] was 63.7%, the EC50 [1] was 5.86 nM and the Emax [2] was 78.8%. For the same compound, the IC50 [2] was 3.58 nM.
Work on `CC(C)[C@H](NC(=O)C(C)(F)F)[C@H](Oc1ccc2c(cnn2-c2ccc3nncn3c2)c1)c1cc(F)cc(F)c1` [WX017] yielded an Emax [1] of 81.3%, an EC50 [1] of 2.56 nM and an Emax [2] of 86%. The IC50 [2] was 0.9 nM.
`CC(C)[C@H](NC(=O)C(C)(F)F)[C@H](Oc1ccc2c(cnn2-c2ccc3nncn3c2)c1)c1ccccc1` [WX018] gave an Emax [1] of 69.4%, an EC50 [1] of 12.3 nM and an Emax [2] of 83.7%. For the same compound, the IC50 [2] was 6.1 nM.
Work on `C[C@H](NC(=O)C(C)(F)F)[C@H](Oc1ccc2c(cnn2-c2ccc3nncn3c2)c1)c1cc(F)cc(F)c1` [WX019] yielded a clearance [3] of 9.74 mL/min/kg, a half-life [3] of 3 h and a Vd [3] of 1.28 L/kg. The Emax [1] was 75.2%, the EC50 [1] was 0.94 nM and the Emax [2] was 94.8%. For the same compound, the IC50 [2] was 0.171 nM.
Compound `C[C@H](NC(=O)C(C)(F)F)[C@H](Oc1ccc2c(cnn2-c2ccc3ncnn3c2)c1)c1cc(F)cc(F)c1` [WX034] has an Emax [1] of 89.2%, an EC50 [1] of 3.2 nM and an Emax [2] of 97.1%. For the same compound, the IC50 [2] was 3.22 nM.
Work on `C[C@H](NC(=O)C(C)(F)F)[C@H](Oc1ccc2c(cnn2-c2ccc3nnnn3c2)c1)c1cc(F)cc(F)c1` [WX035] yielded an Emax [1] of 82.5%, an EC50 [1] of 5.59 nM and an Emax [2] of 94.6%. For the same compound, the IC50 [2] was 2.15 nM.
With `C[C@H](NC(=O)C(C)(F)F)[C@H](Oc1ccc2c(cnn2-c2cnn(C)c2)c1)c1ccccc1` [WX043] the Emax [1] was 72.8%, the EC50 [1] was 5.03 nM and the Emax [2] was 93.3%. It also gave an IC50 [2] of 1.21 nM.
`C[C@H](NC(=O)C(C)(F)F)[C@H](Oc1ccc2c(cnn2-c2cn(C)nn2)c1)c1cc(F)cc(F)c1` [WX051] showed a clearance [3] of 9.29 mL/min/kg, a half-life [3] of 3.54 h and a Vd [3] of 2.61 L/kg. It also gave an Emax [1] of 70.8%, an EC50 [1] of 4.93 nM and an Emax [2] of 95.4%. The IC50 [2] was 3.45 nM.
